Reference: patent US8303960B2, “Radiolabeled affibody molecules” (The United States of America, as represented by the …, priority 2007, dated 2012)
Several values for one entry are separate records, joined by “and”; a condition that tells them apart may be missing. Identical values can stand only once.

Key:
Type in all cases: in vivo, mice
HER2 [1] = assay: Ex-vivo western blot of tumor tissue lysates after 17-DMAG treatment; conditions: for HER2 western blot signal, fraction of control lane (in parentheses): lane (3) relative to lane (1); for HER2 western blot, mean intensity of the signal: after 17-DMAG
Method: (§1) Mice bearing BT-474 or MCF7/clone18 subcutaneous tumors are treated with two doses (30-50 mg/kg, 12 or 24 h apart) of 17-DMAG. Animals (n=4-6) are scanned before, 36 h, and 84 h after the treatment. Immediately after the last scan, the animals are euthanized, and the tumors are frozen for further analysis. HER2 expression in the tumors is then measured ex-vivo by western blot (Table 2) and ELISA (Table 3).

HER2 [2] = assay: Ex-vivo ELISA of tumor tissue lysates after 17-DMAG treatment
Method: as §1

HER2 [3] = assay: PET imaging of ^18F-ZHER2-affibody tumor uptake before and after 17-DMAG; conditions: 84 h post-treatment; BT-474 and MCF7/clone 18 tumors
Method: as §1, with “3). In animals treated with 17-DMAG, the accumulation of radioactivity estimated by PET imaging decreases 50-70% at 84 h post-treatment (FIGS. 11 and 12). This change is confirmed by the biodistribution studies, see, e.g., FIG. 13.” for “3).”

CO[C@H]1/C=C\C=C(/C)C(=O)NC2=CC(=O)C(NCCN(C)C)=C(C[C@@H](C)C[C@H](OC)[C@H](O)[C@@H](C)/C=C(\C)[C@@H]1OC(N)=O)C2=O [17-DMAG, 17-dimethylaminoethylamino-17-demethoxygeldanamycin]
HER2 western blot signal, fraction of control lane (in parentheses) (HER2 [1]; dry transfer): (0.36) | HER2 western blot, mean intensity of the signal (HER2 [1]; dry transfer, lane (3)): 43.24 DU | HER2 western blot, mean intensity of the signal (HER2 [1]; dry transfer, lanes (5) and (6)): 99.85 DU and 88.68 DU | decrease of HER2 expression (HER2 [1]; ex vivo analysis of tumor samples by western blots and ELISA): 50-70% | HER2 western blot signal, fraction of control lane (in parentheses) (HER2 [1]; wet transfer): (0.34) | HER2 western blot, mean intensity of the signal (HER2 [1]; wet transfer, lane (3)): 83.08 DU | HER2 western blot, mean intensity of the signal (HER2 [1]; wet transfer, lanes (5) and (6)): 187.69 DU and 156.39 DU | HER2 in tissue lysate (ELISA) (HER2 [2]; BT-474 tumor after 17-DMAG, Trial 1): 541.41 fmol/mg protein | HER2 in tissue lysate (ELISA) (HER2 [2]; BT-474 tumor after 17-DMAG, Trial 2): 504.86 fmol/mg protein | HER2 (ELISA), fraction of untreated control (in parentheses) (HER2 [2]; BT-474 tumor, Trial 1): (0.35) | HER2 (ELISA), fraction of untreated control (in parentheses) (HER2 [2]; BT-474 tumor, Trial 2): (0.30) | HER2 in tissue lysate (ELISA) (HER2 [2]; MCF7/clone 18 tumor after 17-DMAG, Trial 1): 602.19 fmol/mg protein | HER2 in tissue lysate (ELISA) (HER2 [2]; MCF7/clone 18 tumor after 17-DMAG, Trial 2): 516.77 fmol/mg protein | HER2 (ELISA), fraction of untreated control (in parentheses) (HER2 [2]; MCF7/clone 18 tumor, Trial 1): (0.43) | HER2 (ELISA), fraction of untreated control (in parentheses) (HER2 [2]; MCF7/clone 18 tumor, Trial 2): (0.36) | decrease of accumulation of radioactivity estimated by PET imaging (HER2 [3]): 50-70%
